Data from patent publication US20230072860A1, “ISOXAZOLINE OXIME FORMATE COMPOUND, PREPARATION METHOD THEREFOR, HERBICIDAL COMPOSITION AND USE THEREOF” (QINGDAO KINGAGROOT CHEMICAL COMPOUND CO., LTD., priority 2020, published 2023).

Assays:
Experiment in all cases: Experiment on weeding effect in post-emergence stage
Assay type in all cases: in vivo
Conditions in all cases: dose 15 g a.i./ha, fresh weight control rate level
[1] = system: Setaria viridis
From the text: (§1) Experiment on weeding effect in post-emergence stage:
(§2) Monocotyledonous and dicotyledonous weed seeds (Descurainia sophia, Capsella bursa-pastoris, Abutilon theophrasti, Galium aparine, Stellaria media, Lithospermum arvense, Rorippa indica, Alopecurus aequalis, Alopecurus japonicus, Beckmannia syzigachne, Sclerochloa dura, Conyza Canadensis, Phleum paniculatum, Veronica didyma Tenore, Eleusine indica, Bromus japonicus, Aegilops tauschii, Phalaris arundinacea, Amaranthus retroflexus, Chenopodium album, Commelina communis, Sonchus arvensis, Convolvulus arvensis, Cirsium setosum, Solanum nigrum, Acalypha australis, Digitaria sanguinalis, Echinochloa crusgalli, Setaria viridis, Setaria glauca, Leptochloa chinensis, Monochoria vaginalis, Sagittaria trolia, Scirpus juncoides, Cyperus rotundus, Cyperus iria, Cyperus difformis, Elmbristylis, Portulaca oleracea, Xanthium sibiricum, Pharbitis nil) and major crop seeds (wheat, corn, rice, soybean, cotton, oilseed rape, millet, sorghum, potato, sesame, ricinus) were placed in plastic pots filled with soil, then covered with 0.5-2 cm of soil, allowed to grow in a good greenhouse environment. After 2 weeks of sowing, the test plants were treated in the 2-3 leaf stage. The tested compounds of the present invention were respectively dissolved in acetone, then added with Tween 80 and 1.5 liter/ha of emulsifiable concentrate of methyl oleate as synergist, diluted with a certain amount of water to obtain a solution with a certain concentration, and sprayed with a spray tower onto the plants. After the application, the plants were cultured for 3 weeks in the greenhouse, and then the experimental results of the weeding were counted. The doses of the used compounds were 500, 250, 125, 60, 15 g a.i./ha, and the averages were obtained by repeating for three times.

[2] = system: Abutilon theophrasti
From the text: as §1, §2

[3] = system: Veronica didyma Tenore
From the text: as §1, §2

[4] = system: Galium aparine
From the text: as §1, §2

[5] = system: Amaranthus retroflexus
From the text: as §1, §2

[6] = system: Leptochloa chinensis
From the text: as §1, §2

[7] = system: Digitaria sanguinalis
From the text: as §1, §2

[8] = system: Echinochloa crusgalli
From the text: as §1, §2

[9] = system: Eleusine indica
From the text: as §1, §2

Compound	weeding effect in post-emergence stage, Setaria viridis (level) [1]	weeding effect in post-emergence stage, Abutilon theophrasti (level) [2]	weeding effect in post-emergence stage, Veronica didyma Tenore (level) [3]	weeding effect in post-emergence stage, Galium aparine (level) [4]	weeding effect in post-emergence stage, Amaranthus retroflexus (level) [5]	weeding effect in post-emergence stage, Leptochloa chinensis (level) [6]	weeding effect in post-emergence stage, Digitaria sanguinalis (level) [7]	weeding effect in post-emergence stage, Echinochloa crusgalli (level) [8]	weeding effect in post-emergence stage, Eleusine indica (level) [9]
CC=NOC(=O)C1(C)CC(c2cc(-n3c(=O)n(C)c(=S)n(C)c3=O)c(F)cc2Cl)=NO1 (mixture of isomers) [Compound 2]	5 (Level 5: growth control rate is above 85%)	5 (Level 5: growth control rate is above 85%)	5 (Level 5: growth control rate is above 85%)	5 (Level 5: growth control rate is above 85%)	5 (Level 5: growth control rate is above 85%)	5 (Level 5: growth control rate is above 85%)	5 (Level 5: growth control rate is above 85%)	5 (Level 5: growth control rate is above 85%)	5 (Level 5: growth control rate is above 85%)
CCC(C)=NOC(=O)C1(C)CC(c2cc(-n3c(=O)n(C)c(=S)n(C)c3=O)c(F)cc2Cl)=NO1 (mixture of isomers) [Compound 79]	5 (Level 5: growth control rate is above 85%)	5 (Level 5: growth control rate is above 85%)	5 (Level 5: growth control rate is above 85%)	5 (Level 5: growth control rate is above 85%)	5 (Level 5: growth control rate is above 85%)	5 (Level 5: growth control rate is above 85%)	5 (Level 5: growth control rate is above 85%)	5 (Level 5: growth control rate is above 85%)	5 (Level 5: growth control rate is above 85%)
CC(=NOC(=O)C1(C)CC(c2cc(-n3c(=O)n(C)c(=S)n(C)c3=O)c(F)cc2Cl)=NO1)C(C)C (mixture of isomers) [Compound 80]	5 (Level 5: growth control rate is above 85%)	5 (Level 5: growth control rate is above 85%)	5 (Level 5: growth control rate is above 85%)	5 (Level 5: growth control rate is above 85%)	5 (Level 5: growth control rate is above 85%)	5 (Level 5: growth control rate is above 85%)	5 (Level 5: growth control rate is above 85%)	5 (Level 5: growth control rate is above 85%)	5 (Level 5: growth control rate is above 85%)
CC(=NOC(=O)C1(C)CC(c2cc(-n3c(=O)n(C)c(=S)n(C)c3=O)c(F)cc2Cl)=NO1)C(C)(C)C (mixture of isomers) [Compound 81]	5 (Level 5: growth control rate is above 85%)	5 (Level 5: growth control rate is above 85%)	5 (Level 5: growth control rate is above 85%)	5 (Level 5: growth control rate is above 85%)	5 (Level 5: growth control rate is above 85%)	5 (Level 5: growth control rate is above 85%)	5 (Level 5: growth control rate is above 85%)	5 (Level 5: growth control rate is above 85%)	5 (Level 5: growth control rate is above 85%)
CC(=NOC(=O)C1(C)CC(c2cc(-n3c(=O)n(C)c(=S)n(C)c3=O)c(F)cc2Cl)=NO1)C1CC1 (mixture of isomers) [Compound 84]	5 (Level 5: growth control rate is above 85%)	5 (Level 5: growth control rate is above 85%)	5 (Level 5: growth control rate is above 85%)	5 (Level 5: growth control rate is above 85%)	5 (Level 5: growth control rate is above 85%)	5 (Level 5: growth control rate is above 85%)	5 (Level 5: growth control rate is above 85%)	5 (Level 5: growth control rate is above 85%)	5 (Level 5: growth control rate is above 85%)
Cn1c(=S)n(C)c(=O)n(-c2cc(C3=NOC(C)(C(=O)ON=Cc4ccccc4)C3)c(Cl)cc2F)c1=O (mixture of isomers) [Compound 90]	5 (Level 5: growth control rate is above 85%)	5 (Level 5: growth control rate is above 85%)	5 (Level 5: growth control rate is above 85%)	5 (Level 5: growth control rate is above 85%)	5 (Level 5: growth control rate is above 85%)	5 (Level 5: growth control rate is above 85%)	5 (Level 5: growth control rate is above 85%)	5 (Level 5: growth control rate is above 85%)	5 (Level 5: growth control rate is above 85%)
Cc1ccc(C=NOC(=O)C2(C)CC(c3cc(-n4c(=O)n(C)c(=S)n(C)c4=O)c(F)cc3Cl)=NO2)o1 (mixture of isomers) [Compound 117]	5 (Level 5: growth control rate is above 85%)	5 (Level 5: growth control rate is above 85%)	5 (Level 5: growth control rate is above 85%)	5 (Level 5: growth control rate is above 85%)	5 (Level 5: growth control rate is above 85%)	5 (Level 5: growth control rate is above 85%)	5 (Level 5: growth control rate is above 85%)	5 (Level 5: growth control rate is above 85%)	5 (Level 5: growth control rate is above 85%)
